target: T1, PIP4K2A (full length protein, SignalChem) (Homo sapiens, UniProt P48426); experiment: Kinase Assay PIP4K2 A (Sprint); ADP-Glo biochemical assay; settings: Table 2; compounds listed under IC50 range headings
T1 construct: 4 nM PIP4K2A (full length protein, SignalChem); purchased SignalChem
T1 sequence (P48426 1-406): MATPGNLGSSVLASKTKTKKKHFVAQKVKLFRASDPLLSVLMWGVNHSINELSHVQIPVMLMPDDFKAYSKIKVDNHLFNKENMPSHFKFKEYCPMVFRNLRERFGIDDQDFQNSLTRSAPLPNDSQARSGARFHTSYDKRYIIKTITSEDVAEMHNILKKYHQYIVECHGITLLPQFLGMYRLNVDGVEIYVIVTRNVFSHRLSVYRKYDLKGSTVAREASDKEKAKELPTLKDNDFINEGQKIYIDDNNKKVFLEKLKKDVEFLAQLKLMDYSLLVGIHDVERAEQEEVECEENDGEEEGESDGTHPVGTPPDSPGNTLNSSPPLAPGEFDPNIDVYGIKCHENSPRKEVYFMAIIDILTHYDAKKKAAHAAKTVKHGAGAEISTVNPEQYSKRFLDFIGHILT
Experimental: Dilution series of the compounds were prepared in DMSO at 100 times the final assay concentration (n1=n0/3 in 10 points). The compounds were further diluted to three times the assay concentration in assay buffer (20 mM MOPS pH 7.2, 25 mM magnesium chloride, 0.005% Tween 20). 6 μL of the diluted compounds were added to a 384 well assay plate followed by 9 μL of a mix consisting of 4 nM PIP4K2A (full length protein, SignalChem) and 100 μM PI(5)P diC8 (Tebu-Bio). Enzyme and compounds were pre-incubated at room temperature for 15 min.
Then 3 μL of a solution containing 60 μM ATP (Promega) in assay buffer was added to the wells containing compound and enzyme and mixing was performed by pipetting several times. The reaction was incubated at room temperature for 1 h. Then 18 μL of ADP-Glo™ Reagent (Promega) was added to stop the kinase reaction and deplete the unconsumed ATP, mixing was performed by pipetting several times. The plate was incubated at room temperature for 40 min before addition of 36 μL of Kinase Detection Reagent (Promega) to convert ADP to ATP and introduce luciferase and luciferin to detect ATP. The reaction was incubated at room temperature for 40 min before the luminescence was measured in a in a Victor 3V 1420 multilabel counter (Perkin Elmer).
Percent inhibition of the compounds as compared to dimethyl sulfoxide treated control samples was calculated. Compound concentration versus percent inhibition were fitted to generate IC50 values.

| Structure (SMILES) | IC50 [µM] |
| --- | --- |
| COc1ncc(-c2cncc(-c3ccc(N4CCCC4=O)cc3)c2)c2cnn(C)c12 [Example 156, 1-(4-(5-(7-methoxy-1-methyl-1H-pyrazolo[3,4-c]pyridin-4-yl)pyridin-3-yl)phenyl)pyrrolidin-2-one] | < 5 |
| CN(C)C(=O)c1ccc(-c2cc(-c3ccncc3)cnc2N)cc1 [Example 16, 4-(6-amino-[3,4′-bipyridin]-5-yl)-N,N-dimethylbenzamide] | < 5 |
| CN(C)C(=O)c1ccc(-c2cncc(-c3cncc(-c4ccnc5[nH]ccc45)c3)c2)cc1 [Example 3, 4-(5′-(H-pyrrolo[2,3-b]pyridin-4-yl)-[3,3′-bipyridin]-5-yl)-N,N-dimethylbenzamide] | 0.1 to 1 |
| CN(C)C(=O)c1ccc(-c2cc(-c3ccnc(C(C)(C)O)c3)cnc2N)nc1 [Example 101, 2′-Amino-2″-(2-hydroxypropan-2-yl)-N,N-dimethyl-[2,3′:5′,4″-terpyridine]-5-carboxamide] | 1 to 2.5 |
| CN(C)C/C=C/C(=O)Nc1cccc(C(=O)NCc2cc(-c3cnc(N)c(-c4ccc(C(=O)N(C)C)cn4)c3)ccn2)c1 [Example 192, (E)-2′-amino-2″-((3-(4-(dimethylamino)but-2-enamido)benzamido)methyl)-N,N-dimethyl-[2,3′:5′,4″-terpyridine]-5-carboxamide] | 1 to 2.5 |
| CN(C)C(=O)c1ccc(-c2cc(-c3ccnc(C4(C#N)CC4)c3)cnc2N)nc1 [Example 103, 2′-amino-2″-(1-cyanocyclopropyl)-N,N-dimethyl-[2,3′:5′,4″-terpyridine]-5-carboxamide] | 0.1 to 1 |
| CN(C)C(=O)c1ccc(-c2cc(C3=CCOCC3)cnc2N)cc1 [Example 18, 4-(2-amino-5-(3,6-dihydro-2H-pyran-4-yl)pyridin-3-yl)-N,N-dimethylbenzamide] | < 5 |
| CN(C)C/C=C/C(=O)Nc1ccc(C(=O)NCc2cc(-c3cnc(N)c(-c4ccc(C(=O)N(C)C)cn4)c3)ccn2)cc1 [Example 189, (E)-2′-amino-2″-((4-(4-(dimethylamino)but-2-enamido)benzamido)methyl)-N,N-dimethyl-[2,3′:5′,4″-terpyridine]-5-carboxamide] | 1 to 2.5 |
| CN(C)C(=O)c1ccc(-c2cc(-c3ccc(=O)[nH]c3)cnc2N)cc1 [Example 17, 4-(6-amino-6′-oxo-1′,6′-dihydro-[3,3′-bipyridin]-5-yl)-N,N-dimethylbenzamide] | < 5 |
| COC(C)(C)c1cnc2c(c1)c(-c1cncc(-c3ccc(N4CCCC4=O)cc3)c1)cn2C [Example 155, 1-(4-(5-(5-(2-methoxypropan-2-yl)-1-methyl-1H-pyrrolo[2,3-b]pyridin-3-yl)pyridin-3-yl)phenyl)pyrrolidin-2-one] | < 5 |
| Nc1ncc(-c2ccnc3oc(C(=O)NC4COC4)cc23)cc1-c1ccc(N2CCCC2=O)cc1 [Example 93, 4-(6-amino-5-(4-(2-oxopyrrolidin-1-yl)phenyl)pyridin-3-yl)-N-(oxetan-3-yl)furo[2,3-b]pyridine-2-carboxamide] | 0.005 to 0.1 |
| CN(C)C(=O)c1ccc(-c2cncc(-c3ccnc(C(C)(C)O)c3)c2)cc1 [Example 8, 4-(2′-(2-hydroxypropan-2-yl)-[3,4′-bipyridin]-5-yl)-N,N-dimethylbenzamide] | 1 to 2.5 |
| Cc1c(-c2ccncc2)cncc1-c1ccc(N2CCCC2=O)cc1 [Example 82, 1-(4-(4-methyl-[3,4′-bipyridin]-5-yl)phenyl)pyrrolidin-2-one] | 0.1 to 1 |
| Nc1ncc(-c2ccnc3c2CNC3=O)cc1-c1ccc(N2CCCC2=O)cc1 [Example 95, 4-(6-amino-5-(4-(2-oxopyrrolidin-1-yl)phenyl)pyridin-3-yl)-5,6-dihydro-7H-pyrrolo[3,4-b]pyridin-7-one] | 0.001 to 0.005 |
| O=C1CCCN1c1ccc(-c2cncc(-c3c4n(c5ncccc35)CCC4)c2)cc1 [Example 299, 1-(4-(5-(7,8-dihydro-6H-pyrido[3,2-b]pyrrolizin-5-yl)pyridin-3-yl)phenyl)pyrrolidin-2-one] | 0.005 to 0.1 |
| COC(=O)c1cc2c(-c3cnc(N)c(-c4ccc(N5CCCC5=O)cc4)c3)ccnc2[nH]1 [Example 94, methyl 4-(6-amino-5-(4-(2-oxopyrrolidin-1-yl)phenyl)pyridin-3-yl)-1H-pyrrolo[2,3-b]pyridine-2-carboxylate] | 0.1 to 1 |
| CN(C)C(=O)c1ccc(-c2cc(-c3ccnc(C(C)(C)C#N)c3)cnc2N)nc1 [Example 102, 2′-Amino-2″-(2-cyanopropan-2-yl)-N,N-dimethyl-[2,3′:5′,4″-terpyridine]-5-carboxamide] | 1 to 2.5 |
| CN(C)C(=O)c1ccc(-c2cc(-c3ccnc(C(C)(C)C)c3)cnc2N)nc1 [Example 106, 2′-amino-2″-(tert-butyl)-N,N-dimethyl-[2,3′:5′,4″-terpyridine]-5-carboxamide] | 1 to 2.5 |
| Cn1cc(-c2cncc(-c3ccc(N4CCCC4=O)cc3)c2)c2cc(C(C)(C)O)cnc21 [Example 154, 1-(4-(5-(5-(2-hydroxypropan-2-yl)-1-methyl-1H-pyrrolo[2,3-b]pyridin-3-yl)pyridin-3-yl)phenyl)pyrrolidin-2-one] | < 5 |

Other lines, results leading:

| IC50 [µM] | Structure (SMILES) |
| --- | --- |
| 0.1 to 1 | CN(C)C(=O)c1ccc(-c2cc(-c3ccncc3)cnc2N)nc1 [Example 19, 2′-amino-N,N-dimethyl-[2,3′:5′,4″-terpyridine]-5-carboxamide] |
| 1 to 2.5 | CN(C)C(=O)c1ccc(-c2cc(-c3ccnc4ccncc34)cnc2N)nc1 [Example 112, 2′-amino-N,N-dimethyl-5′-(1,6-naphthyridin-4-yl)-[2,3′-bipyridine]-5-carboxamide] |
| 0.1 to 1 | CN(C)C(=O)c1ccc(-c2cc(-c3ccnc4c3ccn4C)cnc2N)nc1 [Example 105, 2′-amino-N,N-dimethyl-5′-(1-methyl-1H-pyrrolo[2,3-b]pyridin-4-yl)-[2,3′-bipyridine]-5-carboxamide] |
| 0.005 to 0.1 | CN(C)C(=O)c1ccc(-c2cc(-c3ccnc4[nH]ncc34)cnc2N)nc1 [Example 212, 2′-amino-N,N-dimethyl-5′-(2H-pyrazolo[3,4-b]pyridin-4-yl)-[2,3′-bipyridine]-5-carboxamide] |
| < 5 | CN(C)C(=O)c1ccc(-c2cc(-c3cccnc3)cnc2N)nc1 [Example 119, 2′-amino-N,N-dimethyl-[2,3′:5′,3″-terpyridine]-5-carboxamide] |
| 0.1 to 1 | CN(C)C(=O)c1ccc(-c2cc(-c3ccnc4ccc(C#N)cc34)cnc2N)nc1 [Example 100, 2′-Amino-5′-(6-cyanoquinolin-4-yl)-N,N-dimethyl-[2,3′-bipyridine]-5-carboxamide] |
| 0.1 to 1 | CN(C)C(=O)c1ccc(-c2cc(-c3ccnc4occc34)cnc2N)nc1 [Example 104, 2′-amino-5′-(furo[2,3-b]pyridin-4-yl)-N,N-dimethyl-[2,3′-bipyridine]-5-carboxamide] |
| 1 to 2.5 | CN(C)C(=O)c1ccc(-c2cc(-c3ccnc(C#N)c3)cnc2N)nc1 [Example 107, 2′-amino-2″-cyano-N,N-dimethyl-[2,3′:5′,4″-terpyridine]-5-carboxamide] |
| 2.5 to 5 | CN(C)C(=O)c1ccc(-c2cc(-c3ccnnc3)cnc2N)nc1 [Example 108, 2′-amino-N,N-dimethyl-5′-(pyridazin-4-yl)-[2,3′-bipyridine]-5-carboxamide] |

From US11919902B2, “Aryl-bipyridine amine derivatives as phosphatidylinositol phosphate kinase inhibitors” (HiberCell, Inc., priority 2017, dated 2024)
